Source: ChEMBL document CHEMBL5465560, “Selectivity Literature for EUbOPEN Chemogenomic Library” (2024)
Each block holds one compound with its values, some of them ahead of it.

Experiments:
[1] = biological target: Tyrosine-protein kinase ABL1 (Homo sapiens, UniProt P00519); test: Selectivity interaction (Kinase panel (Invitrogen)) EUB0000639a ABL1; settings: at 200 nM
[2] = biological target: T1, Histone-lysine N-methyltransferase NSD3 (Homo sapiens) (UniProt Q9BZ95); test: Selectivity interaction (PWWP, WD40, and Tudor domain panel (DSLS measurements, literature)) EUB0000270b NSD3
T1 sequence (whole entry): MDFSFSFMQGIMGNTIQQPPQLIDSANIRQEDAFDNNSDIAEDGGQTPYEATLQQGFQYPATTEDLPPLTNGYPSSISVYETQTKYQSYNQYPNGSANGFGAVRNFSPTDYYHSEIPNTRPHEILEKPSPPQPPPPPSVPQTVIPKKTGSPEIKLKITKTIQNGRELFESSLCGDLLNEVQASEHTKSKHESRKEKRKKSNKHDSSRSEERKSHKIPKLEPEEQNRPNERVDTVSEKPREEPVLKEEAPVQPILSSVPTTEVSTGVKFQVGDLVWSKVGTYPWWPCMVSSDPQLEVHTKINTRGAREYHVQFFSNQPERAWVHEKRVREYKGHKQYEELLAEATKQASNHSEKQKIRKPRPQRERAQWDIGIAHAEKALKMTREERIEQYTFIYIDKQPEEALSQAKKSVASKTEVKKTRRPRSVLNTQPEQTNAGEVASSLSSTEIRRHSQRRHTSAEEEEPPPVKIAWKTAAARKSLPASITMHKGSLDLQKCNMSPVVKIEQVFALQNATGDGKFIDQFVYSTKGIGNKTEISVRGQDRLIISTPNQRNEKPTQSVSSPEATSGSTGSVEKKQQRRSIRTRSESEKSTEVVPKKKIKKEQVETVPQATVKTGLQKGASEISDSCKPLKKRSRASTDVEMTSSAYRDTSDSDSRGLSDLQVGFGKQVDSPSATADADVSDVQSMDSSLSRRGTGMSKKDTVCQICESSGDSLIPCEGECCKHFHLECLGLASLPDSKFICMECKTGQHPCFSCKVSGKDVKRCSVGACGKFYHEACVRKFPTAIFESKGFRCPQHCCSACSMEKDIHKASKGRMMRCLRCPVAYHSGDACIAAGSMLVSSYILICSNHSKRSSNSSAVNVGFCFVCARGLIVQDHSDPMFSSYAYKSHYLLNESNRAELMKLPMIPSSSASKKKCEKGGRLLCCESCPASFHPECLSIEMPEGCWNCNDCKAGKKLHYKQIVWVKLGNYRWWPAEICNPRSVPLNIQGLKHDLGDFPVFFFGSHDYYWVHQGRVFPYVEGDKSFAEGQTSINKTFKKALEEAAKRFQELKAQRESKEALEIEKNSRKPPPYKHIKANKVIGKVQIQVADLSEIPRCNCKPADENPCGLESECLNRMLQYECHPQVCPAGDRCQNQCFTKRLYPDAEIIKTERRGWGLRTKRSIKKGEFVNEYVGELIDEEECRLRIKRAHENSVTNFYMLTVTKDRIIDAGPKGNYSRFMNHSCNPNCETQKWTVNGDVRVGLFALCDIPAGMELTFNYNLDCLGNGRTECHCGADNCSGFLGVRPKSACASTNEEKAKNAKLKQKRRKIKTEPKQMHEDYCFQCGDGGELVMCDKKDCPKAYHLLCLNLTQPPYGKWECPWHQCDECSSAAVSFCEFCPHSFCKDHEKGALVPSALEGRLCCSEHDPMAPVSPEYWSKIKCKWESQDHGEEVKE

[3] = biological target: T2, Tyrosine-protein kinase Mer (Homo sapiens) (UniProt Q12866); settings: at 10 µM
T2 sequence (whole entry): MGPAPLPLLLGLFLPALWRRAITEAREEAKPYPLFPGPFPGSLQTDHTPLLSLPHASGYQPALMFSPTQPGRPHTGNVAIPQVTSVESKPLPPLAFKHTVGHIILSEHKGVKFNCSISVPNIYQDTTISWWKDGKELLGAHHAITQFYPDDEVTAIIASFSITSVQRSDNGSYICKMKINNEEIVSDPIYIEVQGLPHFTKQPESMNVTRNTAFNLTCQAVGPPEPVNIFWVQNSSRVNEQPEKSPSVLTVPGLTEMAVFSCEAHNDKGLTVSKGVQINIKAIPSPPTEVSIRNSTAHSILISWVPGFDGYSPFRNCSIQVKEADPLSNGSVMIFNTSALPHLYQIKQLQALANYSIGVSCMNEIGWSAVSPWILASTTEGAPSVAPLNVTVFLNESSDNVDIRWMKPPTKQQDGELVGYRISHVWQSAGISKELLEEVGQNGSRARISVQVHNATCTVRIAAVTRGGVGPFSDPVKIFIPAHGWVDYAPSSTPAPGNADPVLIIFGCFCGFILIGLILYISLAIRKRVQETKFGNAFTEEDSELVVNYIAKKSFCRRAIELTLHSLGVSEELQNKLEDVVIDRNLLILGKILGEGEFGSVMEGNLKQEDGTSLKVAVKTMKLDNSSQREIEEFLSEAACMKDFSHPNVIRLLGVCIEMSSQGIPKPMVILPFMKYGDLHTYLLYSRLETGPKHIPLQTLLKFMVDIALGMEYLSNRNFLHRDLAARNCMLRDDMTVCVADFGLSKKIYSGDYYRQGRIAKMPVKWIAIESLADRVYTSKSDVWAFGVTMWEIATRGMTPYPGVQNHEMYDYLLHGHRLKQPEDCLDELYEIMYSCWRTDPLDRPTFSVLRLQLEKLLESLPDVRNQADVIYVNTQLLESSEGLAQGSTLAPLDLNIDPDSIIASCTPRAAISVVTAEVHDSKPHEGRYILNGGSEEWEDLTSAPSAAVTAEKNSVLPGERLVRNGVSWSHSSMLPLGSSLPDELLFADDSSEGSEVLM

[4] = biological target: Serine/threonine-protein kinase pim-1 (Homo sapiens, UniProt P11309); test: Selectivity interaction (KinomeScan (DiscoverX)) EUB0000618a PIM1; settings: at 10 µM
Serine/threonine-protein kinase pim-1, sequence (P11309 whole entry, looked up): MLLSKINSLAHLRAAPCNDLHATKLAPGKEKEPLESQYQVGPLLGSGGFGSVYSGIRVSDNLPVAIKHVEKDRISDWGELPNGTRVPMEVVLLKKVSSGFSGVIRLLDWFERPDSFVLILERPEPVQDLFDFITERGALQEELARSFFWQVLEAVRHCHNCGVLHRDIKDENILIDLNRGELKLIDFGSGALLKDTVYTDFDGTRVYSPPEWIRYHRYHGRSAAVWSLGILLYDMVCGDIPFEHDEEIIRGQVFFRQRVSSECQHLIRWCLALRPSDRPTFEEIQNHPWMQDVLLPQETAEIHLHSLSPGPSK

Aurora kinase B = Aurora kinase B (Homo sapiens, UniProt Q96GD4); test: Selectivity interaction (Kinase panel (KiNativ target engagement assay in Jurkat cells)) EUB0001635a AURKB; type: cell-based; settings: Selectivity number of off-targets 0.0, Selectivity number of targets 233.0, Source Knowledge https://www.sciencedirect.com/science/article/pii/S2451945619300674?via%3Dihub, at 1 µM
Aurora kinase B, sequence (Q96GD4 whole entry): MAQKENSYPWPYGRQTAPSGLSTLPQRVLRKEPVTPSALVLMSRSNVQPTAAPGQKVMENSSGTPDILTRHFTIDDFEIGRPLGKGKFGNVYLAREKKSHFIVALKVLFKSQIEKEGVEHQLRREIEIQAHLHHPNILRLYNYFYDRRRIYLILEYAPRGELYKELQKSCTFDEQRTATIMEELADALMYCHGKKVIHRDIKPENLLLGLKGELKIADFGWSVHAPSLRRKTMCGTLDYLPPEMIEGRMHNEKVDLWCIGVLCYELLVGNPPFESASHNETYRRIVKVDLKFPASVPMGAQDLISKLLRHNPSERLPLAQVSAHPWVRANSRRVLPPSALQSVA

Tyrosine-protein kinase ABL1, sequence (P00519 whole entry, the tested form may be a part): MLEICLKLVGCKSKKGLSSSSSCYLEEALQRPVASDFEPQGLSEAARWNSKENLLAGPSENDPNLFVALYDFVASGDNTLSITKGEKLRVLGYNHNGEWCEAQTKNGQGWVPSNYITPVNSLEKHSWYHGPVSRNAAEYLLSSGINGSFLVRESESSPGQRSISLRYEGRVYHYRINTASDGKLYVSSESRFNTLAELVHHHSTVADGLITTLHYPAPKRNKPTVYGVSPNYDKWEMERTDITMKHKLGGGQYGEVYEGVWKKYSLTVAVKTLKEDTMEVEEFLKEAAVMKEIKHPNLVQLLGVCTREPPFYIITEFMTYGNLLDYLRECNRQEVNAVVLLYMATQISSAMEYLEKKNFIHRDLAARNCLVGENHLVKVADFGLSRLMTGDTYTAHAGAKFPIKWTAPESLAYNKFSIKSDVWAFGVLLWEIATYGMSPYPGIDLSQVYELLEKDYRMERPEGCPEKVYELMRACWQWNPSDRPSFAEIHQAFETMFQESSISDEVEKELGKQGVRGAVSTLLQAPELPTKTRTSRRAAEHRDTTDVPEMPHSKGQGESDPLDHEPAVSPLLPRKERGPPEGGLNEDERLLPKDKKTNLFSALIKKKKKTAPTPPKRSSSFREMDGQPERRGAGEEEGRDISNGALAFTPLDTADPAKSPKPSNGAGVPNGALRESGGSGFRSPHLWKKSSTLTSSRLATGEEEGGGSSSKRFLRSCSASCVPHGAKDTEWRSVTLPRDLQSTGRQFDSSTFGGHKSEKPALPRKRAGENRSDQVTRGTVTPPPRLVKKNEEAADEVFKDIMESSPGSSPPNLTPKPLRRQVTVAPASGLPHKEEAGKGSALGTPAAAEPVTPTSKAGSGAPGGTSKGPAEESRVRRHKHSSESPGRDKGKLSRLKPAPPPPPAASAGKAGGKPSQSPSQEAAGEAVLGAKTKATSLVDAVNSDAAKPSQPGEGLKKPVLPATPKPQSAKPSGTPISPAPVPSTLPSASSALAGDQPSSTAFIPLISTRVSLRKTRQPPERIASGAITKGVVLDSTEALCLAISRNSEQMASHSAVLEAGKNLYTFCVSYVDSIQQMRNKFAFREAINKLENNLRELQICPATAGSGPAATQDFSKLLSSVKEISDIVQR

Structure (SMILES): CC[C@@H]1[C@H](F)C(=O)N[C@@H]1COc1nccc2cc(C(N)=O)c(OC)cc12 [ZIMLOVISERTIB]
% of inhibition [1]: 1.34%

Structure (SMILES): O[C@H]1CC[C@H](Nc2ncc3nc(Nc4c(F)cc(F)cc4F)n([C@H]4CCOC4)c3n2)CC1
% of control [4]: 100%

Structure (SMILES): C=CC(=O)Nc1ccc(C(=O)Nc2[nH]nc3c2CN(C(=O)N[C@H](CN(C)C)c2ccccc2)C3(C)C)cc1
% of engagement (Aurora kinase B): 23%

The remaining lines, values ahead:

dTagg [2]: 0.7 K
Structure (SMILES): Cc1cc(CN)cc(C)c1-c1ncn(C)c1-c1cncn1C

% of control [3]: 100%
Structure (SMILES): CCN(CC)CCCCNc1ncc2cc(-c3cc(OC)cc(OC)c3)c(NC(=O)NC(C)(C)C)nc2n1
